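Cells were grown in 96-well plates and exposed to each compound for 48 hours at five concentrations; endpoints were interpolated linearly between bracketing concentrations, or set to the highest concentration if not reached. Abbreviation: GI50, concentration required for 50% inhibition of growth. The concentration for full growth arrest is given as TGI.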
Columns and labels:
Assay in all cases: NCI tumour cell line growth inhibition, 48 h
SF-295 CNS = tested on: SF-295 CNS
COLO 205 colon = tested on: COLO 205 colon
UACC-257 melanoma = tested on: UACC-257 melanoma
OVCAR-8 ovarian = tested on: OVCAR-8 ovarian
SR leukemia = tested on: SR leukemia
HOP-92 NSCLC = tested on: HOP-92 NSCLC
U251 CNS = tested on: U251 CNS
CCRF-CEM leukemia = tested on: CCRF-CEM leukemia
HT29 colon = tested on: HT29 colon
ACHN renal = tested on: ACHN renal

SMILES | GI50 (SF-295 CNS) [µM] | TGI (SF-295 CNS) [µM] | GI50 (COLO 205 colon) [µM] | GI50 (UACC-257 melanoma) [µM] | TGI (UACC-257 melanoma) [µM] | GI50 (OVCAR-8 ovarian) [µM] | TGI (OVCAR-8 ovarian) [µM] | TGI (SR leukemia) [µM] | GI50 (HOP-92 NSCLC) [µM] | TGI (HOP-92 NSCLC) [µM] | GI50 (U251 CNS) [µM] | TGI (U251 CNS) [µM] | GI50 (CCRF-CEM leukemia) [µM] | TGI (CCRF-CEM leukemia) [µM] | GI50 (HT29 colon) [µM] | TGI (HT29 colon) [µM] | GI50 (ACHN renal) [µM] | TGI (ACHN renal) [µM] | TGI (COLO 205 colon) [µM] | GI50 (SR leukemia) [µM]
O=c1cc(-c2ccccc2)[nH]c2ccccc12 | 0.458 | > 100 | 0.45 | > 79.3 | > 100 | 4.18 | > 100 | > 100 | 0.571 | > 100 | 0.573 | > 100 | 0.738 | > 100 | 0.39 | > 34.8 | 0.858 | > 100 |  | 
COC(C(=O)[O][Ge]([CH3])([CH3])[CH3])c1ccccc1 (configuration not stated) | > 100 | > 100 | > 100 | > 100 | > 100 | > 100 | > 100 | > 100 | > 100 | > 100 | > 100 | > 100 | > 100 | > 100 | > 100 | > 100 | > 100 | > 100 | > 100 | > 100
COc1cc2c(c(OC)c1)C1c3ccccc3NC(=O)N1CC2 (configuration not stated) | 2.63 | 9.14 | 2.82 | 51 | > 100 | 5.01 | > 100 | > 100 | 7.25 | > 100 | 4.38 | > 100 | 2.67 | > 100 | 3.37 | > 100 | 5.48 | > 100 | 8.25 | 2.77
O=C(NCCO)Nc1ccc(-c2nc(N3CCOCC3)c3cccn3n2)cc1 | 0.117 | 2.13 | 0.117 | 0.149 | 4.29 | 0.257 | 21.1 | > 100 | 0.0466 | 1.09 | 1.01 | > 95.1 | 2.98 | > 100 | 0.496 | > 100 | 0.0614 | > 100 | 9.08 | 0.232
CN1CCC(n2cnc(-c3ccc(F)cc3)c2-c2ccnc(NCCO)n2)CC1 | > 19.8 | > 25 | 8.86 | > 25 | > 25 | 18.4 | > 25 | > 25 | 5.43 | > 25 | 12.7 | > 25 | > 25 | > 25 | 10 | > 25 | 12.1 | > 25 | > 25 | 23.7
Cc1c(C(=O)C/C(=N\O)C(=O)Nc2cc(Cl)c(Cl)cc2Cl)[n+](=O)c2ccccc2n1[O-] |  | 53.5 |  |  | 20.2 |  | 40.7 | 84.4 |  | 46.2 |  | 31.3 |  | > 100 |  | > 100 |  | 67.5 | 12.6 | 
COc1cccc(-n2ncc3c(N/N=C/c4ccc(C(=O)NCCN(C)C)cc4)ncnc32)c1 | 3.85 | 7.93 | 0.605 | 3.72 | 7.44 | 4.19 | 9.27 | > 13.9 | > 25 | > 25 | 3.25 | 6.77 | 4.17 | 11.2 | 0.814 | 4.55 | 1.08 | 4.86 | 3.2 | 2.29
COC(=O)[C@H](C[C@H](Cc1ccccc1)NC(=O)c1csc([C@@H](C[C@H](C(C)C)N(C)C(=O)[C@@H](NC(=O)[C@H]2CCCCN2C)C(C)C)OC(C)=O)n1)NC(=O)OCc1ccccc1 | 0.00128 | > 9 | < 0.0009 | 0.0349 | 2.78 | < 0.0009 | > 9 | > 4.29 | 0.00163 | > 9 | < 0.0009 | > 9 | < 0.0009 | > 9 | < 0.0009 |  | 0.00243 | > 9 |  | < 0.0009
O=C1/C(=C\c2c[nH]c3ccccc23)c2ccccc2N1c1c(Cl)cccc1Cl | 1.75 | 3.51 | 1.8 | 2.34 | 4.61 | 3.26 | 11.2 | 5.16 | 2 | 3.54 | 1.58 | 3.68 | 2.42 | 7.23 | 1.85 | 3.4 | 2.4 | 10.1 | 3.27 | 2.33
CC[C@@H](C(=O)O)C1CC[C@H](C)C([C@@H](C)[C@H](O)[C@H](C)C(=O)[C@H](CC)C2O[C@]3(C=C[C@@H](O)[C@]4(CC[C@@](C)(C5CC[C@](O)(CC)[C@H](C)O5)O4)O3)[C@H](C)C[C@@H]2C)O1 (some centres not stated) | 0.261 | 11.1 | 0.224 | 0.293 | 5.88 | 1.21 | 37.4 | 14 | 0.317 | 4.93 | 0.115 | 10.2 | 0.619 | 20.5 | 0.293 | 25.7 | 0.504 | 27.5 | 5.2 | 0.0411
COc1cc(C2CC(c3ccc4c(c3)OCO4)=NN2C=O)cc(OC)c1OC (configuration not stated) | 0.735 | 4.26 | 1.3 | > 20.3 | > 100 | > 23.3 | > 100 | > 100 |  | > 100 | 4.42 | > 100 | 2.48 | > 100 | 0.467 | > 100 | 3.53 | > 100 | 5.91 | 0.52
CC#C[C@]1(O)CC[C@H]2[C@@H]3CCC4=CC(=O)CCC4=C3[C@@H](c3ccc4c(c3)OCO4)C[C@@]21C | 67.8 | 329 | 118 | 119 | 410 | 141 | 783 | 479 | 17.7 | 131 | 108 | 410 | 103 | 619 | 225 | > 1000 | 47.4 | 633 | 291 | 77.2
COc1ccc(C2=Nc3ccccc3NC(=O)C2)cc1 |  | 47.8 |  |  | > 100 |  | > 100 | > 100 |  | 54 |  | 82.3 |  | > 100 |  | > 100 |  | > 100 | > 100 | 
COc1ccc(/C=C(/C#N)C(N)=O)cc1OC |  | > 100 |  |  | > 100 |  | > 100 | > 100 |  | > 100 |  | > 100 |  | > 100 |  | > 100 |  | > 100 | > 100 | 
COc1ccc(/C(C#N)=C/c2ccccc2OC)cc1 | 29.1 | > 100 | 5.96 | 12.4 | > 100 | 25.2 | > 100 | 15.1 | 4.57 | 70.8 | 4.63 | 78.4 | 3.34 | 30.3 | 3.95 | 18.3 | 32.1 | > 100 | 32.4 | 2.95
COc1ccc(-c2c3c(N)nc(-c4ccncc4)nc3nc3c2c(C)nn3-c2ccccc2)cc1 | 24.7 | > 100 | 6.12 | 79.9 | > 100 | 7.11 | > 100 | > 100 | 36.2 | > 100 | 3.6 | 19 | 5.93 | > 100 | 3.57 | 16 | 4.58 | > 100 | > 100 | 1.53
CC1OC(O[C@@H]2OC=C(C=O)[C@@]3(O)CC[C@H](C)[C@@H]23)C(O)C(O)C1O (some centres not stated) |  | > 100 |  |  | > 100 |  | > 100 | > 100 |  | > 100 |  | > 100 |  | > 100 |  | > 100 |  | > 100 | > 100 | 
COc1ccc(/C=C2\CCCC3=C2N=C2SC(C)=NN2C3c2ccc(OC)c(OC)c2)cc1OC (configuration not stated) | 14.8 | > 100 | 5.24 | 9.17 | > 100 | 6.31 | > 100 | > 100 | 10.6 | 52 | 26.2 | > 100 | 2.91 | > 100 | 11.1 | 90.1 | 4.2 | 33.3 | > 100 | 3.66
CCCCCCCCCCCC(=O)OCC1OC(n2cc(F)c(=O)[nH]c2=O)C(NC(=O)OCc2ccccc2)C(OC(=O)CCCCCCCCCCC)C1O (configuration not stated) |  | > 100 |  |  | > 100 |  | > 100 | > 100 |  | > 100 |  | > 100 |  | > 100 |  | > 100 |  | > 100 | > 100 | 
CCc1ccccc1NC(=O)C(=O)CC(=O)c1sc(Nc2ccccc2)nc1C |  | > 100 |  |  | > 100 |  | > 100 | > 100 |  | > 100 |  | > 100 |  | > 100 |  | > 100 |  | > 100 | > 100 | 
Cc1ccc(N=Nc2c(O)c(C(=O)O)cc3ccccc23)cc1C |  | > 100 |  |  | > 100 |  | > 100 | > 100 |  | > 100 |  | > 100 |  | > 100 |  | > 100 |  | > 100 | > 100 | 
C/C(=N\NS(=O)(=O)c1ccccc1)c1ccc(Cl)c(Cl)c1 |  | > 100 |  |  | > 100 |  | > 100 | > 100 |  | > 100 |  | > 100 |  | > 100 |  | > 100 |  | > 100 | 85.3 | 
CC1(C)C(=NNC(=O)C[N+](C)(C)C)C(C)(C)C1=NNC(=O)C[N+](C)(C)C |  | > 100 |  |  | > 100 |  | > 100 | > 100 |  | > 100 |  | > 100 |  | > 100 |  | > 100 |  | > 100 | > 100 | 
Cn1cc(-c2ccc3occ(-c4cccc(-c5ccncc5)c4)c3n2)cn1 | 0.809 | > 100 | 0.546 | 2.6 | > 100 | 1.31 | > 100 | > 100 | 2.76 | > 100 | 0.601 | > 100 | 0.923 | > 100 | 0.356 | > 100 | 0.8 | > 100 | > 100 | 0.23
COc1ccc2sc3c(NCCCN(C)C)nc4ccccc4c3c(=O)c2c1 | 1.82 | 3.27 | 1.58 | 1.81 | 3.49 | 1.7 | 3.62 | 5.99 | 1.03 | 2.47 | 1.53 | 3.27 | 1.57 | 3.67 | 1.5 | 3.02 | 1.56 | 2.9 | 3.52 | 1.68
O=C(/C=C/c1ccccc1)c1cc(Br)ccc1O |  | 31.5 |  |  | 27.9 |  | 30.4 | 12.3 |  | 18.3 |  | 29.9 |  | 33.9 |  | 31 |  | 28.7 | 33.3 | 
Cc1ccc(-c2cn3ccnc3c(-c3ccc(Cl)cc3)n2)cc1 | 0.0268 | 2.33 | 0.2 |  | > 100 | 1.43 | 34.2 |  | 12.5 | > 93.2 | 0.786 | 18.1 | 0.122 | > 100 | 0.31 | 37.4 |  | 22.3 | > 29.3 | 0.0548
CCCCCCCCCCC(C(=O)O)C1(C(=O)O)CCC(=O)O1 (configuration not stated) |  | > 100 |  |  | > 100 |  | > 100 | > 100 |  | > 100 |  | > 100 |  | > 100 |  | > 100 |  | > 100 | > 100 | 
C=CCC[CH2][Sn]([c]1ccccc1)([c]1ccccc1)[c]1ccccc1 | 1.99 | 3.6 | 1.64 | 1.87 | 3.33 | 1.78 | 3.28 | 5.28 | 1.78 | 3.38 | 1.65 | 3.01 | 1.01 | 4.37 | 2.25 | 4.73 | 1.66 | 3.07 | 3 | 0.572
